# In the oligonucleotide strings, read from the 5' end, every base follows the letter of its sugar. An asterisk marks phosphorothioate; unmarked linkages are phosphodiester. Other units and linkages are bracketed, terminal groups are in braces. A string of capitals states the bases alone. d = 2'-deoxy (DNA); m = 2'-O-methyl; f = 2'-fluoro
# Legend:
# Format in all cases: cell-based, human
# AR FL(1) = experiment: AR protein knock-down by Western blot after siRNA transfection in 22RV1 cells: AR FL(1); conditions: 5 nM siRNA, 50 h post transfection, compared to controls
# Procedure: (§1) In some instances, a set of AR siRNAs were identified that were predicted to be specific in human and non-human primates (NHP) and cross-reactive with NHPs but not rodent AR mRNA. To identify AR siRNAs that regulate both full length AR and clinically relevant AR splice variants, the search for AR siRNAs was focused primarily, but not exclusively, on exons 1, 2 and 3 of the AR gene, which are common to most AR isoforms. The resulting set of 50 AR siRNAs (Tables 1-3) was assessed in two prostate cancer lines that express high levels of either clinically relevant AR splice variants (22RV1, ATCC) or a full length AR T877A LBD mutant (LNCaP, ATCC). The response of LNCaP tumors in xenograft models to AR antagonists is known to correlate well with clinical responses.
# (§2) To monitor their ability to downregulate various AR isoforms, each siRNA was formulated at a single final concentration of 5 nM with a commercially-available transfection reagent (Lipofectamine RNAiMAX, Life Technologies) according to the manufacturer's “forward transfection” instructions. At 50 h (22RV1) and 72 h (LNCaP) post transfection, cells were harvested, and lysed in RIPA buffer (Pierce) supplemented with HALT protease inhibitors (Pierce) using standard procedures. The protein concentration was determined using a BCA protein concentration kit (Pierce). To monitor AR levels in these lysates, proteins (30 ug/lane) were separated by PAGE on BOLT 4-12% Bis-Tris PA gels (Life Technologies), transferred to nitrocellulose using an iBlot dry blot system (Thermo Fisher), and probed with specific antibodies against a region of the N-terminal domain of human AR that is common in known clinically relevant splice variants (N20, Santa Cruz Biotech). A second antibody against α-Tubulin was used as control (P16, Santa Cruz Biotech). Levels of these proteins in the respective cell lysates were quantified on an Odyssey imaging system (LICOR) using appropriate secondary antibodies linked to IRDyes (800CW, 680RD).
# AR-SV(2) = experiment: AR protein knock-down by Western blot after siRNA transfection in 22RV1 cells: AR-SV(2); conditions: 5 nM siRNA, 50 h post transfection, compared to controls
# Procedure: as §1, §2
# AR-SV(3) = experiment: AR protein knock-down by Western blot after siRNA transfection in 22RV1 cells: AR-SV(3); conditions: 5 nM siRNA, 50 h post transfection, compared to controls
# Procedure: as §1, §2
# [1] = test system: AR FL (full length AR T877A LBD mutant); experiment: AR protein knock-down by Western blot after siRNA transfection in LNCaP cells: AR FL; conditions: 5 nM siRNA, 72 h post transfection, compared to controls
# Procedure: as §1, §2
Substance,% KD AR Protein 22RV1 AR FL(1) (AR FL(1)) [%],% KD AR Protein 22RV1 AR-SV(2) (AR-SV(2)) [%],% KD AR Protein 22RV1 AR-SV(3) (AR-SV(3)) [%],% KD AR Protein LNCaP AR FL [1] [%]
"XD-01861: AR siRNA with chemical modification, Id # 3779; sense X05417 (SEQ ID NO: 247), antisense X05418 (SEQ ID NO: 248) (sense mGmAfGmCfGmUfGmGfAmCfUmUfUmCfCmGfGmAfAdT*dT; antisense fUfUmCfCmGfGmAfAmAfGmUfCmCfAmCfGmCfUmCdT*dT)",90,11,51,99
"XD-01862: AR siRNA with chemical modification, Id # 3781; sense X05419 (SEQ ID NO: 249), antisense X05420 (SEQ ID NO: 250) (sense mGmCfGmUfGmGfAmCfUmUfUmCfCmGfGmAfAmAfUdT*dT; antisense fAfUmUfUmCfCmGfGmAfAmAfGmUfCmCfAmCfGmCdT*dT)",92,24,40,87
"XD-01840: AR siRNA with chemical modification, Id # 2935; sense X05375 (SEQ ID NO: 205), antisense X05376 (SEQ ID NO: 206) (sense mUmCfCmGfAmAfGmGfAmAfAmAfAmUfUmGfUmCfCdT*dT; antisense fGfGmAfCmAfAmUfUmUfUmUfCmCfUmUfCmGfGmAdT*dT)",89,89,75,97
"XD-01842: AR siRNA with chemical modification, Id # 2940; sense X05379 (SEQ ID NO: 209), antisense X05380 (SEQ ID NO: 210) (sense mAmGfGmAfAmAfAmAfUmUfGmUfCmCfAmUfCmUfUdT*dT; antisense fAfAmGfAmUfGmGfAmCfAmAfUmUfUmUfUmCfCmUdT*dT)",89,94,84,101
"XD-01841: AR siRNA with chemical modification, Id # 2936; sense X05377 (SEQ ID NO: 207), antisense X05378 (SEQ ID NO: 208) (sense mCmCfGmAfAmGfGmAfAmAfAmAfUmUfGmUfCmCfAdT*dT; antisense fUfGmGfAmCfAmAfUmUfUmUfUmCfCmUfUmCfGmGdT*dT)",85,85,74,99
"XD-01848: AR siRNA with chemical modification, Id # 3101; sense X05391 (SEQ ID NO: 221), antisense X05392 (SEQ ID NO: 222) (sense mGmUfCmAfCmAfCmAfUmUfGmAfAmGfGmCfUmAfUdT*dT; antisense fAfUmAfGmCfCmUfUmCfAmAfUmGfUmGfUmGfAmCdT*dT)",87,31,27,101
"XD-01832: AR siRNA with chemical modification, Id # 2920; sense X05359 (SEQ ID NO: 189), antisense X05360 (SEQ ID NO: 190) (sense mGmCfAmCfUmAfUmUfGmAfUmAfAmAfUmUfCmCfGdT*dT; antisense fCfGmGfAmAfUmUfUmAfUmCfAmAfUmAfGmUfGmCdT*dT)",93,93,73,92
"XD-01859: AR siRNA with chemical modification, Id # 3481; sense X05413 (SEQ ID NO: 243), antisense X05414 (SEQ ID NO: 244) (sense mGmGfCmAfCmCfUmCfUmCfUmCfAmAfGmAfGmUfUdT*dT; antisense fAfAmCfUmCfUmUfGmAfGmAfGmAfGmGfUmGfCmCdT*dT)",87,−23,−49,100
"XD-01855: AR siRNA with chemical modification, Id # 3462; sense X05405 (SEQ ID NO: 235), antisense X05406 (SEQ ID NO: 236) (sense mAmGfCmCfAmGfUmGfUmGfUmCfCmGfAmAfUmGfAdT*dT; antisense fUfCmAfUmUfCmGfGmAfCmAfCmAfCmUfGmGfCmUdT*dT)",12,−1,−18,75
"XD-01843: AR siRNA with chemical modification, Id # 2961; sense X05381 (SEQ ID NO: 211), antisense X05382 (SEQ ID NO: 212) (sense mCmGfUmCfUmUfCmGfGmAfAmAfUmGfUmUfAmUfGdT*dT; antisense fCfAmUfAmAfCmAfUmUfUmCfCmGfAmAfGmAfCmGdT*dT)",78,75,47,94
"XD-01819: AR siRNA with chemical modification, Id # 2185; sense X05333 (SEQ ID NO: 163), antisense X05334 (SEQ ID NO: 164) (sense mCmUfGmCfGmUfAmCfCmAfGmAfGmUfCmGfCmGfAdT*dT; antisense fUfCmGfCmGfAmCfUmCfUmGfGmUfAmCfGmCfAmGdT*dT)",15,47,45,92
"XD-01853: AR siRNA with chemical modification, Id # 3310; sense X05401 (SEQ ID NO: 231), antisense X05402 (SEQ ID NO: 232) (sense mAmCfGmAfCmCfAmGfAmUfGmGfCmUfGmUfCmAfUdT*dT; antisense fAfUmGfAmCfAmGfCmCfAmUfCmUfGmGfUmCfGmUdT*dT)",91,−43,13,99
"XD-01860: AR siRNA with chemical modification, Id # 3629; sense X05415 (SEQ ID NO: 245), antisense X05416 (SEQ ID NO: 246) (sense mAmCfUmCfGmAfUmCfGmUfAmUfCmAfUmUfGmCfAdT*dT; antisense fUfGmCfAmAfUmGfAmUfAmCfGmAfUmCfGmAfGmUdT*dT)",90,−9,4,99
"XD-01836: AR siRNA with chemical modification, Id # 2925; sense X05367 (SEQ ID NO: 197), antisense X05368 (SEQ ID NO: 198) (sense mAmUfUmGfAmUfAmAfAmUfUmCfCmGfAmAfGmGfAdT*dT; antisense fUfCmCfUmUfCmGfGmAfAmUfUmUfAmUfCmAfAmUdT*dT)",87,83,73,91
"XD-01858: AR siRNA with chemical modification, Id # 3475; sense X05411 (SEQ ID NO: 241), antisense X05412 (SEQ ID NO: 242) (sense mGmAfAmUfGmAfGmGfCmAfCmCfUmCfUmCfUmCfAdT*dT; antisense fUfGmAfGmAfGmAfGmGfUmGfCmCfUmCfAmUfUmCdT*dT)",93,25,66,99

# From patent publication US20220033434A1, “ANDROGEN RECEPTOR NUCLEIC ACIDS AND USES THEREOF” (Avidity Biosciences, Inc., priority 2016, published 2022)
